This is an account of results in ChEMBL document CHEMBL6109059, “Synthesis and biofilm inhibitory activity of cyclic dinucleotide analogues prepared with macrocyclic ribose-phosphate skeleton” (2025).

Assay [1] relates to Escherichia coli. The assay is described as follows: Inhibition of biofilm formation in Escherichia coli DH5alpha at 156 uM measured after 24 hrs by crystal violet staining based assay relative to control. It is filed as functional. The conditions noted are these: DH5-alpha.
Assay [2] relates to Pseudomonas aeruginosa. The assay is described as follows: Inhibition of biofilm formation in Pseudomonas aeruginosa NBRC13275 at 156 uM measured after 6 hrs by crystal violet staining based assay relative to control. The format is functional.
Assay [3] relates to Staphylococcus aureus. The assay can be described thus: Inhibition of biofilm formation in Staphylococcus aureus NBRC13276 at 156 uM measured after 24 hrs by crystal violet staining based assay relative to control. It is filed as functional.
Assay [4] deals with Escherichia coli. The assay is described as follows: Potency index, ratio of compound effect to c-di-GMP effect on inhibition of biofilm formation in Escherichia coli DH5alpha. The format is functional.
Assay [5] relates to Escherichia coli. The assay can be described thus: Antibacterial activity against Escherichia coli DH5alpha. It is filed as functional, organism-based.
Assay [6] deals with Staphylococcus aureus. The assay is described as follows: Antibacterial activity against Staphylococcus aureus NBRC13276. The format is functional, organism-based.
The subject of assay [7] is Pseudomonas aeruginosa. The assay is described as follows: Antibacterial activity against Pseudomonas aeruginosa NBRC13275. It is filed as functional, organism-based.

Structures are written as SMILES. Calls of active or inactive are those of the source. The calls are words filed in the database; no cut-off is given here.

As for `Nc1nc2c(ncn2[C@@H]2O[C@@H]3COP(=O)(O)O[C@H]4[C@@H](O)[C@H](n5cnc6c(=O)[nH]c(N)nc65)O[C@@H]4COP(=O)(O)O[C@H]3[C@H]2O)c(=O)[nH]1`, the inhibition at 156 µM in the assay with Escherichia coli [1] came to 12.5%; in the assay with Pseudomonas aeruginosa [2], 52.9%.
In the case of `O=P1(O)OC[C@H]2O[C@@H](n3cc(-c4cccc(F)c4)nn3)[C@H](O)[C@@H]2OP(=O)(O)OC[C@H]2O[C@@H](n3cc(-c4cccc(F)c4)nn3)[C@H](O)[C@@H]2O1`, the inhibition at 156 µM amounted to 30.6% in the assay on Escherichia coli [1], 7.15% with Staphylococcus aureus [3] and 57.7% in the assay with Pseudomonas aeruginosa [2]. Further, in the assay on Escherichia coli [4], the Ratio turned out to be 2. The outcome with Escherichia coli [5], with Staphylococcus aureus [6] and in the assay on Pseudomonas aeruginosa [7] was inactive.
For the compound `O=P1(O)OC[C@H]2O[C@@H](n3cc(-c4ccncc4)nn3)[C@H](O)[C@@H]2OP(=O)(O)OC[C@H]2O[C@@H](n3cc(-c4ccncc4)nn3)[C@H](O)[C@@H]2O1`, the inhibition at 156 µM in the assay on Escherichia coli [1] came out at 34.2%; in the assay on Staphylococcus aureus [3] it was 39.6%; in the assay on Pseudomonas aeruginosa [2], 21.9%. Besides, the Ratio in the assay with Escherichia coli [4] amounted to 2. The outcome in the assay with Escherichia coli [5], in the assay with Staphylococcus aureus [6] and in the assay with Pseudomonas aeruginosa [7] was inactive.
With `O=P1(O)OC[C@H]2O[C@@H](n3cc(-c4ccc(F)cc4)nn3)[C@H](O)[C@@H]2OP(=O)(O)OC[C@H]2O[C@@H](n3cc(-c4ccc(F)cc4)nn3)[C@H](O)[C@@H]2O1`, the inhibition at 156 µM was 25.1% with Escherichia coli [1], 4.86% in the assay with Staphylococcus aureus [3] and 57.9% in the assay on Pseudomonas aeruginosa [2]. Also, the Ratio with Escherichia coli [4] is on record as 2. Moreover, the result in the assay on Escherichia coli [5], in the assay with Staphylococcus aureus [6] and in the assay with Pseudomonas aeruginosa [7] was inactive.
In the case of `O=P1(O)OC[C@H]2O[C@@H](n3cc(-c4ccccc4)nn3)[C@H](O)[C@@H]2OP(=O)(O)OC[C@H]2O[C@@H](n3cc(-c4ccccc4)nn3)[C@H](O)[C@@H]2O1`, the inhibition at 156 µM in the assay with Escherichia coli [1] came to 39.9%; with Staphylococcus aureus [3], 24.1%; in the assay with Pseudomonas aeruginosa [2], 44.2%. The Ratio with Escherichia coli [4] is 2. Also, the outcome with Escherichia coli [5], in the assay with Staphylococcus aureus [6] and in the assay with Pseudomonas aeruginosa [7] was inactive.
Turning to `O=P1(O)OC[C@H]2O[C@@H](n3cc(-c4ccccc4F)nn3)[C@H](O)[C@@H]2OP(=O)(O)OC[C@H]2O[C@@H](n3cc(-c4ccccc4F)nn3)[C@H](O)[C@@H]2O1`, the inhibition at 156 µM in the assay with Escherichia coli [1] was determined as 39.1%; with Staphylococcus aureus [3], 16%; in the assay with Pseudomonas aeruginosa [2], 59.4%. Also, in the assay on Escherichia coli [4], the Ratio was found to be 2. Also, the result in the assay with Escherichia coli [5], in the assay with Staphylococcus aureus [6] and in the assay with Pseudomonas aeruginosa [7] was inactive.
In the case of `O=P1(O)OC[C@H]2O[C@@H](n3cc(-c4ccc(Br)cc4)nn3)[C@H](O)[C@@H]2OP(=O)(O)OC[C@H]2O[C@@H](n3cc(-c4ccc(Br)cc4)nn3)[C@H](O)[C@@H]2O1`, the results for the inhibition at 156 µM in the assay with Escherichia coli [1], with Staphylococcus aureus [3] and with Pseudomonas aeruginosa [2] were 35.1%, 21.2% and 46%, respectively. Also, the Ratio in the assay on Escherichia coli [4] worked out at 2. The outcome in the assay with Escherichia coli [5], with Staphylococcus aureus [6] and with Pseudomonas aeruginosa [7] was inactive.
Turning to `O=P1(O)OC[C@H]2O[C@@H](n3cc(-c4cc(F)cc(F)c4)nn3)[C@H](O)[C@@H]2OP(=O)(O)OC[C@H]2O[C@@H](n3cc(-c4cc(F)cc(F)c4)nn3)[C@H](O)[C@@H]2O1`, the inhibition at 156 µM in the assay with Escherichia coli [1] is 45.8%; in the assay with Staphylococcus aureus [3], 8.24%; with Pseudomonas aeruginosa [2], 47.3%. Further, the Ratio with Escherichia coli [4] is 2. In addition, the outcome with Escherichia coli [5], with Staphylococcus aureus [6] and with Pseudomonas aeruginosa [7] was inactive.
Turning to `O=P1(O)OC[C@H]2O[C@@H](n3cc(-c4ccc(F)c(F)c4)nn3)[C@H](O)[C@@H]2OP(=O)(O)OC[C@H]2O[C@@H](n3cc(-c4ccc(F)c(F)c4)nn3)[C@H](O)[C@@H]2O1`, the figures for the inhibition at 156 µM with Escherichia coli [1], in the assay on Staphylococcus aureus [3] and in the assay on Pseudomonas aeruginosa [2] were 24.4%, 15.9% and 51.4%, respectively. In the assay on Escherichia coli [4], the Ratio was determined as 2. The result with Escherichia coli [5], with Staphylococcus aureus [6] and in the assay with Pseudomonas aeruginosa [7] was inactive.
Consider `COc1ccc(-c2cn([C@@H]3O[C@@H]4COP(=O)(O)O[C@H]5[C@@H](O)[C@H](n6cc(-c7ccc(OC)cc7)nn6)O[C@@H]5COP(=O)(O)O[C@H]4[C@H]3O)nn2)cc1`, for which the inhibition at 156 µM amounted to 36.7% with Escherichia coli [1], 19% in the assay on Staphylococcus aureus [3] and 53.3% in the assay with Pseudomonas aeruginosa [2]. Also, the Ratio with Escherichia coli [4] was 2. For the same compound, the outcome with Escherichia coli [5], with Staphylococcus aureus [6] and with Pseudomonas aeruginosa [7] was inactive.
